Laboratory results taken from US20240209004A1, “BORIC ACID DERIVATIVE ACTING AS Beta-LACTAMASE INHIBITOR” (TUOJIE BIOTECH (SHANGHAI) CO., LTD., priority 2021, published 2024).
Read-outs that look alike come from different tables or passages of the source.

Experiments:
[1] = tested on: cefepime-resistant Escherichia coli; assay: MIC in combination with cefepime for drug-resistant bacteria (Test Example 2); assay type: cell-based; conditions: for MIC: Escherichia coli, with CPM 8 μg/mL
Method: (§1) The biosafety cabinet was sterilized with ultraviolet light for 30 min. Glycerol tubes were taken out of a −80° C. freezer, and streaks were gently formed in the glycerol tubes using inoculating loops. Bacteria were inoculated onto MHIIA solid plates. The plates were incubated overnight in a 37° C. incubator.
(§2) 30 μL of compound stock solution was added to column 1 of a 96-well v-bottom plate, and DMSO was added to columns 2-10. Subsequently, 15 μL was transferred from column 1 to column 2 using a pipette and well mixed gently, and then 15 μL of solution was transferred from column 2 to column 3; the serial dilution process proceeded to column 10 (200×β-lactamase inhibitor working solutions were prepared). The antibiotic was diluted with a corresponding solvent to form a 1.6 mg/mL solution.

[2] = tested on: cefepime-resistant Klebsiella pneumoniae; assay: as above; assay type: cell-based; conditions: for MIC: Klebsiella pneumoniae, with CPM 8 μg/mL
Method: as §1, §2

[3] = tested on: cefepime-resistant Pseudomonas aeruginosa; assay: as above; assay type: cell-based
Method: as §1, §2

[4] = tested on: cefepime-resistant Acinetobacter baumannii; assay: as above; assay type: cell-based; conditions: for concentration for achieving a bacteriostatic effect where the CPM MIC is fixed at 8 μg/mL: with CPM 8 μg/mL
Method: as §1, §2

[5] = tested on: cefepime-resistant Klebsiella pneumoniae expressing different types of β-lactamases; assay: microbe, parasite or virus in culture; assay type: cell-based; conditions: for MIC: Klebsiella pneumoniae; for MIC, Cefepime + compound (8 ug/ml): inhibitor at 8 ug/ml
Method: as §1
as §2, with “3:” for “3;”

[6] = Single intravenous administration exposure, pharmacokinetics (Test Example 4); assay type: in vivo, ICR mice; conditions: ICR mice, single intravenous injection, plasma; for AUC(0-t) / AUC(0-inf) / Cmax / Tmax: mouse, in vivo; for AUC(0-t): read-out: AUC0-t; for AUC(0-inf): read-out: AUCinf; for Cmax: read-out: Cmax; for Tmax: read-out: Tmax
Method: The solutions were prepared on the day of administration and stored at 4° C.
Single intravenous injections were administered to ICR mice, which were grouped as follows. Blood was collected from the saphenous vein or the fundus venous plexus at 0.083 h, 0.25 h, 0.5 h, 1 h, 2 h, 4 h, 6 h and 12 h after administration (about 0.1 mL/time point). A biological analysis method was developed to determine plasma concentrations at different time points, and related pharmacokinetic parameters were calculated.

[7] = summary in words of Test Example 2

Work on `O=C([O-])c1c2c(cc3c1O[B-](O)(O)[C@@H]1C[C@H]31)OCCO2.[Na+].[Na+]` [Compound 1-1-Na] yielded an MIC ([1]; read-out: concentration for achieving a bacteriostatic effect where the CPM MIC is fixed at 8 μg/mL, strain FDA-CDC AR-BANK#0055) of 1 mg/L, an MIC ([1]; read-out: concentration for achieving a bacteriostatic effect where the CPM MIC is fixed at 8 μg/mL, strain FDA-CDC AR-BANK#0114) of 0.0312 mg/L and an MIC ([1]; read-out: concentration for achieving a bacteriostatic effect where the CPM MIC is fixed at 8 μg/mL, strain FDA-CDC AR-BANK#0370) of 1 mg/L. The MIC ([1]; read-out: concentration for achieving a bacteriostatic effect where the CPM MIC is fixed at 8 μg/mL, strain FDA-CDC AR-BANK#0371) was no more than 0.0156 mg/L, the “restoring to cefepime antibacterial activity against cefepime-resistant Escherichia coli” value [1, 7] was “significantly restore to cefepime antibacterial activity” and the MIC ([2]; read-out: concentration for achieving a bacteriostatic effect where the CPM MIC is fixed at 8 μg/mL, strain FDA-CDC AR-BANK#0003) was 0.125 mg/L. For the same compound, the MIC ([2]; read-out: concentration for achieving a bacteriostatic effect where the CPM MIC is fixed at 8 μg/mL, strain FDA-CDC AR-BANK#0076) was 0.25 mg/L, the MIC ([2]; read-out: concentration for achieving a bacteriostatic effect where the CPM MIC is fixed at 8 μg/mL, strain FDA-CDC AR-BANK#0080) was 2 mg/L and the MIC ([2]; read-out: concentration for achieving a bacteriostatic effect where the CPM MIC is fixed at 8 μg/mL, strain FDA-CDC AR-BANK#0126) was no more than 0.0156 mg/L. For the same compound, the MIC ([2]; read-out: concentration for achieving a bacteriostatic effect where the CPM MIC is fixed at 8 μg/mL, strain FDA-CDC AR-BANK#0158) was 2 mg/L, the “restoring to cefepime antibacterial activity against cefepime-resistant Klebsiella pneumoniae” value [2, 7] was “significantly restore to cefepime antibacterial activity” and the MIC ([3]; read-out: concentration for achieving a bacteriostatic effect where the CPM MIC is fixed at 8 μg/mL, strain FDA-CDC AR-BANK#0246, with CPM 8 μg/mL) was greater than 16 mg/L. For the same compound, the MIC ([3]; read-out: concentration for achieving a bacteriostatic effect where the CPM MIC is fixed at 8 μg/mL, strain FDA-CDC AR-BANK#0439, with CPM 8 μg/mL) was greater than 16 mg/L, the MIC ([3]; read-out: concentration for achieving a bacteriostatic effect where the CPM MIC is fixed at 8 μg/mL, strain FDA-CDC AR-BANK#0441, with CPM 8 μg/mL) was 8 mg/L and the MIC ([3]; read-out: concentration for achieving a bacteriostatic effect where the CPM MIC is fixed at 8 μg/mL, strain FDA-CDC AR-BANK#0444, with CPM 8 μg/mL) was 16 mg/L. The MIC ([4]; Acinetobacter baumannii, read-out: concentration for achieving a bacteriostatic effect where the CPM MIC is fixed at 8 μg/mL) was greater than 16 mg/L, the “concentration for achieving a bacteriostatic effect where the CPM MIC is fixed at 8 μg/mL” value ([4]; strain FDA-CDC AR-BANK#0035) was greater than 16 mg/L and the “concentration for achieving a bacteriostatic effect where the CPM MIC is fixed at 8 μg/mL” value ([4]; strain FDA-CDC AR-BANK#0078) was greater than 16 mg/L. It also gave an MIC ([5]; ATCCBAA1705, read-out: MIC, single substance (1-1-Na, QPX7728, CPM), strain ATCC BAA-1705, KPC-2, TEM, SHV, Class A) greater than 128 mg/L, an MIC ([5]; ATCCBAA1898, read-out: MIC, single substance (1-1-Na, QPX7728, CPM), strain ATCC BAA-1898, KPC-2, Class A) greater than 128 mg/L and an MIC ([5]; ATCCBAA1899, read-out: MIC, single substance (1-1-Na, QPX7728, CPM), strain ATCC BAA-1899, KPC-2, Class A) of 64 mg/L. It also gave an MIC ([5]; ATCCBAA2343, read-out: MIC, single substance (1-1-Na, QPX7728, CPM), strain ATCC BAA-2343, KPC, Class A) greater than 128 mg/L, an MIC ([5]; ATCCBAA2470, read-out: MIC, single substance (1-1-Na, QPX7728, CPM), strain ATCC BAA-2470, NDM-1, Class B) of 64 mg/L and an MIC ([5]; read-out: MIC, single substance (1-1-Na, QPX7728, CPM), strain ARLG-1127 (Urine), KPC, KPC-3, TEM, TEM-1, Class A) greater than 128 mg/L. The MIC ([5]; read-out: MIC, single substance (1-1-Na, QPX7728, CPM), strain ARLG-1195, CTM-1 group, SHV, NDM, Class A, B) was greater than 128 mg/L, the MIC ([5]; read-out: MIC, single substance (1-1-Na, QPX7728, CPM), strain ARLG-1196, CTM-1 group, SHV, NDM, TEM, Class A, B) was 128 mg/L and the “MIC, Cefepime + compound (8 ug/ml)” value ([5]; strain ARLG-1127 (Urine), KPC, KPC-3, TEM, TEM-1, Class A) was 0.25 mg/L. The “MIC, Cefepime + compound (8 ug/ml)” value ([5]; strain ARLG-1195, CTM-1 group, SHV, NDM, Class A, B) was no more than 0.125 mg/L, the “MIC, Cefepime + compound (8 ug/ml)” value ([5]; strain ARLG-1196, CTM-1 group, SHV, NDM, TEM, Class A, B) was no more than 0.125 mg/L and the “MIC, Cefepime + compound (8 ug/ml)” value ([5]; strain ATCC BAA-1705, KPC-2, TEM, SHV, Class A) was less than 0.125 mg/L. For the same compound, the “MIC, Cefepime + compound (8 ug/ml)” value ([5]; strain ATCC BAA-1898, KPC-2, Class A) was less than 0.125 mg/L, the “MIC, Cefepime + compound (8 ug/ml)” value ([5]; strain ATCC BAA-1899, KPC-2, Class A) was no more than 0.125 mg/L and the “MIC, Cefepime + compound (8 ug/ml)” value ([5]; strain ATCC BAA-2343, KPC, Class A) was 0.25 mg/L. For the same compound, the “MIC, Cefepime + compound (8 ug/ml)” value ([5]; strain ATCC BAA-2470, NDM-1, Class B) was no more than 0.125 mg/L, the t½z ([6]; 10 mg/kg) was 115 min and the t½z ([6]; 100 mg/kg) was 178 min. It also gave an AUC(0-t) ([6]; 10 mg/kg) of 211 µg·h/mL, an AUC(0-inf) ([6]; 10 mg/kg) of 213 µg·h/mL and a Cmax ([6]; 10 mg/kg) of 146 µg/mL. It also gave a Tmax ([6]; 10 mg/kg) of 4.98 min, an AUC(0-t) ([6]; 100 mg/kg) of 1400 µg·h/mL and an AUC(0-inf) ([6]; 100 mg/kg) of 1540 µg·h/mL. It also gave a Cmax ([6]; 100 mg/kg) of 607 µg/mL and a Tmax ([6]; 100 mg/kg) of 4.98 min.
